pKd: −log10 of the molar value. Where two headings read alike, the source gives them in different places.
Legend:
human CA-XII = molecular target: T1, human CA-XII (Homo sapiens, UniProt O43570); assay: Surface Plasmon Resonance (SPR) binding kinetics to recombinant human CA-XII (Biacore 8K, single-cycle kinetics, 1:1 binding model)
T1 construct: purchased Creative BioMart CA12-261H
Protocol: (§1) G1. Surface Plasmon Resonance Assay Conditions for hCA-IX and hCA-XII
(§2) Surface Plasmon Resonance (SPR) experiments were conducted on a Biacore 8K instrument (Cytiva, Marlborough, MA) to determine the binding kinetics of the compound to recombinant human CA-IX (Acro, CA9-H82E3) and CA-XII (Creative BioMart, CA12-261H) proteins. The ligands were diluted to 10 μg/mL in PBS-P+ buffer (20 mM phosphate buffer, pH 7.4, with 2.7 mM KCl, 137 mM NaCl, and 0.05% Tween 20) and captured on Series S Streptavidin Sensor Chips (Cytiva, 29699621) to 1200-1800 response units (RU) using a flow rate of 5 μL/min and injection times of 180 seconds for human CA-IX and 75 seconds for human CA-XII. Analyte binding was evaluated using a single-cycle kinetics method over 9 analyte concentrations (100-0.39 nM) in PBS-P+ buffer with 1% DMSO using a 50 μL/min. flow rate, 120 second association time, and 1200 second dissociation time. The flow cell temperature was set to 25° C. Analyte binding curves were fit to a 1:1 binding kinetic model in Biacore Insight Evaluation software (version 4.0.8.20368) following reference flow cell subtraction and DMSO correction to derive the association and dissociation binding constants.

human CA-IX = molecular target: T2, human CA-IX (Homo sapiens, UniProt Q16790); assay: Surface Plasmon Resonance (SPR) binding kinetics to recombinant human CA-IX (Biacore 8K, single-cycle kinetics, 1:1 binding model)
T2 construct: purchased Acro CA9-H82E3
Protocol: as §1, §2

[1] = Chelated Metal: Lu-175, 25° C., pH 7.4, read-out: CAXII KD
[2] = Chelated Metal: Lu-175; SPR, 25° C., pH 7.4; read-out: CAIX KD
[3] = read-out: CAXII KD, Chelated Metal: Lu-175, 25° C., pH 7.4
[4] = read-out: CAIX KD; Chelated Metal: Lu-175; SPR, 25° C., pH 7.4

T1 sequence (O43570 25-354): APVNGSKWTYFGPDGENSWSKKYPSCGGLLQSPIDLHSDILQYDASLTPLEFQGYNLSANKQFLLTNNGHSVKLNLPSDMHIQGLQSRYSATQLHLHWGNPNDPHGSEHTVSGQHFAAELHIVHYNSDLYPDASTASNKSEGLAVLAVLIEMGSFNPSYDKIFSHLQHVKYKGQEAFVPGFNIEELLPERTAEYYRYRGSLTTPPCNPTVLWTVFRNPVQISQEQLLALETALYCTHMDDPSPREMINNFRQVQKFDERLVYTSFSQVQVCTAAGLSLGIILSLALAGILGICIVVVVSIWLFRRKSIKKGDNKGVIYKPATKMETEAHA

Structure (SMILES)	pKd (human CA-XII; [1])	pKd (human CA-IX; [2])	further results
CC(CCC(=O)N[C@@H](CC(=O)N[C@@H](CC(=O)N[C@@H](CCCCn1cc([C@H]2CC[C@H](C(=O)Nc3nnc(S(N)(=O)=O)s3)CC2)nn1)C(=O)NCCOCCOCCNC(=O)CN1CCN(CC(=O)O)CCN(CC(=O)O)CCN(CC(=O)O)CC1)C(=O)O)C(=O)O)(c1ccc(O)cc1)c1ccc(O)cc1.[Lu+3] [Compound 100.4]	8.00 to 8.60	> 9.00	–
CC(CCC(=O)N[C@@H](CC(=O)N[C@@H](CC(=O)N[C@@H](CCCn1cc(C23CCC(C(=O)Nc4nnc(S(N)(=O)=O)s4)(CC2)C3)nn1)C(=O)NCCOCCOCCNC(=O)CN1CCN(CC(=O)O)CCN(CC(=O)O)CCN(CC(=O)O)CC1)C(=O)O)C(=O)O)(c1ccc(O)cc1)c1ccc(O)cc1.[Lu+3] [Compound 100.5]	> 9.00	> 9.00	–
CC(CCC(=O)N[C@@H](CC(=O)N[C@@H](CC(=O)N[C@@H](CCCCn1cc(C23CCC(C(=O)Nc4nnc(S(N)(=O)=O)s4)(CC2)CC3)nn1)C(=O)NCCOCCOCCNC(=O)CN1CCN(CC(=O)O)CCN(CC(=O)O)CCN(CC(=O)O)CC1)C(=O)O)C(=O)O)(c1ccc(O)cc1)c1ccc(O)cc1.[Lu+3] [Compound 100.6]	8.60 to 9.00	> 9.00	–
CC(CCC(=O)N[C@@H](CC(=O)N[C@@H](CC(=O)N[C@@H](CCCn1cc(C23CCC(C(=O)Nc4nnc(S(N)(=O)=O)s4)(CC2)CC3)nn1)C(=O)NCCOCCOCCNC(=O)CN1CCN(CC(=O)O)CCN(CC(=O)O)CCN(CC(=O)O)CC1)C(=O)O)C(=O)O)(c1ccc(O)cc1)c1ccc(O)cc1.[Lu+3] [Compound 100.7]	8.60 to 9.00	> 9.00	–
CC(CCC(=O)N[C@@H](CC(=O)N[C@@H](CC(=O)N[C@@H](CCCCn1cc(C23CCC(C(=O)Nc4nnc(S(N)(=O)=O)s4)(CC2)C3)nn1)C(=O)N1CC2(CN(C(=O)CN3CCN(CC(=O)O)CCN(CC(=O)O)CCN(CC(=O)O)CC3)C2)C1)C(=O)O)C(=O)O)(c1ccc(O)cc1)c1ccc(O)cc1.[Lu+3] [Compound 100.10]	> 9.00	> 9.00	–
CC(CCC(=O)N[C@@H](CC(=O)N[C@@H](CC(=O)N[C@@H](CCCCn1cc(C23CCC(C(=O)Nc4nnc(S(N)(=O)=O)s4)(CC2)C3)nn1)C(=O)N1CC(NC(=O)CN2CCN(CC(=O)O)CCN(CC(=O)O)CCN(CC(=O)O)CC2)C1)C(=O)O)C(=O)O)(c1ccc(O)cc1)c1ccc(O)cc1.[Lu+3] [Compound 100.11]	> 9.00	> 9.00	–
CC(CCC(=O)N[C@@H](CC(=O)N[C@@H](CC(=O)N[C@@H](CCCCn1cc(C23CCC(C(=O)Nc4nnc(S(N)(=O)=O)s4)(CC2)C3)nn1)C(=O)N1CCC(NC(=O)CN2CCN(CC(=O)O)CCN(CC(=O)O)CCN(CC(=O)O)CC2)CC1)C(=O)O)C(=O)O)(c1ccc(O)cc1)c1ccc(O)cc1.[Lu+3] [Compound 100.12]	> 9.00	> 9.00	–
CC(CCC(=O)N[C@@H](CC(=O)N[C@@H](CC(=O)N[C@@H](CCCCn1cc(C23CCC(C(=O)Nc4nnc(S(N)(=O)=O)s4)(CC2)C3)nn1)C(=O)N1CCN(C(=O)CN2CCN(CC(=O)O)CCN(CC(=O)O)CCN(CC(=O)O)CC2)CC1)C(=O)O)C(=O)O)(c1ccc(O)cc1)c1ccc(O)cc1.[Lu+3] [Compound 100.13]	> 9.00	> 9.00	–
CC(CCC(=O)N[C@@H](CC(=O)N[C@@H](CC(=O)N[C@@H](CCCCn1cc(C23CCC(C(=O)Nc4nnc(S(N)(=O)=O)s4)(CC2)C3)nn1)C(=O)NCCOCCNC(=O)CCC(C(=O)O)N1CCN(CC(=O)O)CCN(CC(=O)O)CCN(CC(=O)O)CC1)C(=O)O)C(=O)O)(c1ccc(O)cc1)c1ccc(O)cc1.[Lu+3] (some centres unmarked) [Compound 100.15]	> 9.00	> 9.00	–
CC(CC(=O)N[C@@H](CC(=O)N[C@@H](CC(=O)N[C@@H](CCCCn1cc(C23CCC(C(=O)Nc4nnc(S(N)(=O)=O)s4)(CC2)C3)nn1)C(=O)NCCOCCOCCNC(=O)CN1CCN(CC(=O)O)CCN(CC(=O)O)CCN(CC(=O)O)CC1)C(=O)O)C(=O)O)(c1ccc(O)cc1)c1ccc(O)cc1.[Lu+3] [Compound 100.17]	> 9.00	> 9.00	–
CC(CCC(=O)N[C@@H](CC(=O)N[C@@H](CC(=O)N[C@@H](CCCCn1cc(C23CCC(C(=O)Nc4nnc(S(N)(=O)=O)s4)(CC2)C3)nn1)C(=O)NCC1(C(=O)O)CCN(C(=O)CN2CCN(CC(=O)O)CCN(CC(=O)O)CCN(CC(=O)O)CC2)CC1)C(=O)O)C(=O)O)(c1ccc(O)cc1)c1ccc(O)cc1.[Lu+3] [Compound 100.18]	> 9.00	> 9.00	–
CC(CCC(=O)N[C@@H](CC(=O)N[C@@H](CC(=O)N[C@@H](CCCCn1cc(C23CCC(C(=O)Nc4nnc(S(N)(=O)=O)s4)(CC2)C3)nn1)C(=O)NCC1(C(=O)O)CN(C(=O)CN2CCN(CC(=O)O)CCN(CC(=O)O)CCN(CC(=O)O)CC2)C1)C(=O)O)C(=O)O)(c1ccc(O)cc1)c1ccc(O)cc1.[Lu+3] [Compound 100.19]	> 9.00	> 9.00	–
CC(CCC(=O)N[C@@H](CC(=O)N[C@@H](CC(=O)N[C@@H](CCCCn1cc(C23CC(C(=O)Nc4nnc(S(N)(=O)=O)s4)(C2)C3)nn1)C(=O)NCCOCCOCCNC(=O)CN1CCN(CC(=O)O)CCN(CC(=O)O)CCN(CC(=O)O)CC1)C(=O)O)C(=O)O)(c1ccc(O)cc1)c1ccc(O)cc1.[Lu+3] [Compound 100]	–	–	pKd (human CA-XII; [3]): < 8.00; pKd (human CA-IX; [4]): 8.60 to 9.00
NS(=O)(=O)c1nnc(NC(=O)C23CC(c4cn(CCCC[C@@H](C(=O)NCCOCCOCCNC(=O)CN5CCN(CC(=O)O)CCN(CC(=O)O)CCN(CC(=O)O)CC5)n5cc(C[C@H](NC(=O)C[C@H](NC(=O)c6n[nH]c7ccccc67)C(=O)O)C(=O)O)nn5)nn4)(C2)C3)s1.[Lu+3] [Compound 101.1]	8.00 to 8.60	> 9.00	–
CC(CCC(=O)N[C@@H](CC(=O)N[C@@H](Cc1cn([C@@H](CCCCn2cc(C34CC(C(=O)Nc5nnc(S(N)(=O)=O)s5)(C3)C4)nn2)C(=O)NCCOCCOCCNC(=O)CN2CCN(CC(=O)O)CCN(CC(=O)O)CCN(CC(=O)O)CC2)nn1)C(=O)O)C(=O)O)(c1ccc(O)cc1)c1ccc(O)cc1.[Lu+3] [Compound 101.2]	8.00 to 8.60	> 9.00	–
CC(CCC(=O)N[C@@H](CC(=O)N[C@@H](Cc1cn([C@@H](CCCCn2cc(C34CCC(C(=O)Nc5nnc(S(N)(=O)=O)s5)(CC3)CC4)nn2)C(=O)NCCOCCOCCNC(=O)CN2CCN(CC(=O)O)CCN(CC(=O)O)CCN(CC(=O)O)CC2)nn1)C(=O)O)C(=O)O)(c1ccc(O)cc1)c1ccc(O)cc1.[Lu+3] [Compound 101]	–	–	pKd (human CA-XII; [3]): > 9.00; pKd (human CA-IX; [4]): > 9.00
CC(CCCC(=O)N1CCC(C(=O)O)(C(=O)NCC(=O)N[C@@H](CCCCn2cc(CCCC(=O)Nc3nnc(S(N)(=O)=O)s3)nn2)C(=O)NCCOCCOCCNC(=O)CN2CCN(CC(=O)O)CCN(CC(=O)O)CCN(CC(=O)O)CC2)CC1)(c1ccc(O)cc1)c1ccc(O)cc1.[Lu+3] [Compound 102.1]	< 8.00	> 9.00	–
CC(CC(=O)N1CCC(C(N)=O)(C(=O)NCC(=O)N[C@@H](CCCCn2cc(CCCC(=O)Nc3nnc(S(N)(=O)=O)s3)nn2)C(=O)NCCOCCOCCNC(=O)CN2CCN(CC(=O)O)CCN(CC(=O)O)CCN(CC(=O)O)CC2)CC1)(c1ccc(O)cc1)c1ccc(O)cc1.[Lu+3] [Compound 102.2]	< 8.00	8.00 to 8.60	–
CC(CCCC(=O)N1CCC(C(N)=O)(C(=O)NCC(=O)N[C@@H](CCCCn2cc(CCCC(=O)Nc3nnc(S(N)(=O)=O)s3)nn2)C(=O)NCCOCCOCCNC(=O)CN2CCN(CC(=O)O)CCN(CC(=O)O)CCN(CC(=O)O)CC2)CC1)(c1ccc(O)cc1)c1ccc(O)cc1 [Compound 102.3]	–	–	pKd (human CA-XII; Chelated Metal: None, 25° C., pH 7.4, read-out: CAXII KD): < 8.00; pKd (human CA-IX; Chelated Metal: None; SPR, 25° C., pH 7.4; read-out: CAIX KD): > 9.00; Ratio (CAXII/CAIX) (human CA-IX; KD ratio CAXII/CAIX; Chelated Metal: None): *** (10 < *** ≤ 50)
CC(CC(=O)N1CCC(C(=O)O)(C(=O)NCC(=O)N[C@@H](CCCCn2cc(CCCC(=O)Nc3nnc(S(N)(=O)=O)s3)nn2)C(=O)NCCOCCOCCNC(=O)CN2CCN(CC(=O)O)CCN(CC(=O)O)CCN(CC(=O)O)CC2)CC1)(c1ccc(O)cc1)c1ccc(O)cc1.[Lu+3] [Compound 102.4]	8.00 to 8.60	> 9.00	–
CC(CCCC(=O)N1CCC(C(=O)O)(C(=O)NCC(=O)N[C@@H](CCCCn2cc(C34CCC(C(=O)Nc5nnc(S(N)(=O)=O)s5)(CC3)CC4)nn2)C(=O)NCCOCCOCCNC(=O)CN2CCN(CC(=O)O)CCN(CC(=O)O)CCN(CC(=O)O)CC2)CC1)(c1ccc(O)cc1)c1ccc(O)cc1.[Lu+3] [Compound 102.5]	8.00 to 8.60	> 9.00	–
CC(CCCC(=O)N1CCC(C(=O)O)(C(=O)NCC(=O)N[C@@H](CCCCn2cc(C34CC(C(=O)Nc5nnc(S(N)(=O)=O)s5)(C3)C4)nn2)C(=O)NCCOCCOCCNC(=O)CN2CCN(CC(=O)O)CCN(CC(=O)O)CCN(CC(=O)O)CC2)CC1)(c1ccc(O)cc1)c1ccc(O)cc1.[Lu+3] [Compound 102.6]	< 8.00	> 9.00	–
CC(CCCOc1cc(NC(CC(=O)N[C@@H](CCCCn2cc(CCCC(=O)Nc3nnc(S(N)(=O)=O)s3)nn2)C(=O)NCCOCCOCCNC(=O)CN2CCN(CC(=O)O)CCN(CC(=O)O)CCN(CC(=O)O)CC2)C(=O)O)cc(C(=O)O)c1)(c1ccc(O)cc1)c1ccc(O)cc1.[Lu+3] (some centres unmarked) [Compound 102.7]	8.00 to 8.60	> 9.00	–

Reference: patent US20260325685A1, “Radiopharmaceutical Compositions Targeting Carbonic Anhydrase IX and Uses Thereof” (RayzeBio, Inc., priority 2023, published 2026)
